Laboratory results published in patent US5708018A, “2-aminoindans as selective dopamine D3 ligands” (Pharmacia & Upjohn Company, priority 1996, dated 1998).
Read-outs that look alike come from different tables or passages of the source.

Assays:
[1] = biological target: T1, D2 (Rattus norvegicus, UniProt P61169); test: Competition binding, cloned mammalian D2 receptors expressed in CHO-K1 cells, [3H]-5-(dipropylamino)-5,6-dihydro-4H-imidazo(4,5,1-ij)quinolin-2(1H)-one (R-enantiomer); conditions: radioligand 2 nM, IC50 from one-site fit, Ki by Chen-Prushoff equation
T1 construct: expressed in transfected cells; host or cells: CHO-K1
Method: (§1) Competition binding experiments employed eleven dilutions of test compounds competing with [^3 H]-5-(dipropylamino)-5,6-dihydro-4H-imidazo(4,5,1-ij)quinolin-2(1H)-one (R-enantiomer) (62 Ci/mmol, 2 nM) and [^3 H]-spiperone (107 Ci/mmol, 0.5 nM) for D2 and D3 binding sites, respectively. (Lahti, R. A., Eur. J. Pharmacol., 202, 289 (1991)) In each experiment, cloned mammalian receptors expressed in CHO-K1 cells were used. (Chio, C. L., Nature, 343, 266 (1990); and Huff, R. M., Mol. Pharmacol. (1993), in press). IC50 values were estimated by fitting the data to a one-site model by non-linear least squares minimization. Ki values were calculated with the Chen-Prushoff equation.

[2] = biological target: T2, D3 (Rattus norvegicus, UniProt P19020); test: Competition binding, cloned mammalian D3 receptors expressed in CHO-K1 cells, [3H]-spiperone
T2 construct: expressed in transfected cells; host or cells: CHO-K1
Method: as §1

[3] = cloned mammalian receptors in CHO-K1 cells, [3H]-spiperone 0.5 nM, IC50 from one-site fit, Ki by Chen-Prushoff equation, read-out: D3 (ki)

T2 sequence (P19020 whole entry): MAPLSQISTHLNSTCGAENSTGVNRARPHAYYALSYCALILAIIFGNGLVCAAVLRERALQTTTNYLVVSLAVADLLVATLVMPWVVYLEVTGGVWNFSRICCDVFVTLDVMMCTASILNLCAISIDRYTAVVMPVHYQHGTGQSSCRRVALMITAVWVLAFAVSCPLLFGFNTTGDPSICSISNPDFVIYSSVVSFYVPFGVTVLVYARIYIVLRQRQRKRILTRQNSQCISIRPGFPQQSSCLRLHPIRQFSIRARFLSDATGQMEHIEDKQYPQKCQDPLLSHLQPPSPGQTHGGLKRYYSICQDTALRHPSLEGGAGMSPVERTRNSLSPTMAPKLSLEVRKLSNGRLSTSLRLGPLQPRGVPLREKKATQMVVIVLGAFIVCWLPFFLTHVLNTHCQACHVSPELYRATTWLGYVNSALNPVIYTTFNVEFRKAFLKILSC
T1 sequence (P61169 whole entry): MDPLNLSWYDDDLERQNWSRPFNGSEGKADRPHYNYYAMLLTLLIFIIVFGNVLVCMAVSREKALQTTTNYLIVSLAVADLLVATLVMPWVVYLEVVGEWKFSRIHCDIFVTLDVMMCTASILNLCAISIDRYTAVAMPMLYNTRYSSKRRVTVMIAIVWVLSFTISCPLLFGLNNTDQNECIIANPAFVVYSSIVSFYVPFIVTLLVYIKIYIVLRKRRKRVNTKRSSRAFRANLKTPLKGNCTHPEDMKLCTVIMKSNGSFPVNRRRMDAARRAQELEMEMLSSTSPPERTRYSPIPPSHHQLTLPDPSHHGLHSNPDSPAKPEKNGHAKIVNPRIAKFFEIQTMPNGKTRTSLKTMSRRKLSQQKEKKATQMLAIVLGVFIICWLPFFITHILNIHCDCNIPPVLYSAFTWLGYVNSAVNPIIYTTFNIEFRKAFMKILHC

SMILES: CCCN(CCC)C1Cc2ccc(OS(=O)(=O)C(F)(F)F)cc2C1 (centres unmarked) [Example 2]
- Ki [1]: 350 nM
- Ki [2]: 31 nM

SMILES: CCCN(CCC)C1Cc2cc(O)c(C(=O)OC)cc2C1 (centres unmarked) [Example 10, 5-(carbomethoxy)-6-hydroxy-2-(di-N-propylamino)indan]
- Ki [1]: 121 nM
- Ki [2]: 6.5 nM

SMILES: CCCN(CCC)C1Cc2cc(OS(=O)(=O)c3ccc(C)cc3)c(OS(=O)(=O)c3ccc(C)cc3)cc2C1 [Example 32, 5,6 di-toluenesulfonyloxy-2-(di-n-propylamino)indan]
- Ki [1]: 291 nM
- Ki [2, 3]: 45 nM

SMILES: CCCN(CCC)C1Cc2ccc(OS(=O)(=O)c3ccc(C)cc3)cc2C1 (centres unmarked) [Example 17, Toluene-4-sulfonic acid 2-dipropylamino-indan-5-yl ester]
- Ki [1]: 108 nM
- Ki [2, 3]: 3.7 nM
